Results reported in patent EP4656642A1, “ESTROGEN RECEPTOR PROTEOLYSIS TARGETING CHIMERA COMPOUND AND USE THEREOF” (GAN & LEE PHARM CO., LTD, priority 2023, dated 2024).

Experiments:
Assay type in all cases: cell-based
T-47D cells = experiment: Inhibition of cell proliferation in T-47D cells (CCK-8, 6 days); details: 6 days of treatment, Table 3
Source text: Test Example 2: Inhibitory effect of the PROTAC compounds provided in the present disclosure on cell proliferation in T-47D cells (source ATCC)
The complete medium required for T-47D cells was 1640 ( ATCC, Product number: A10491-01) basal medium containing 10% fetal bovine serum. T-47D cells were inoculated in 96-well plates at a density of 3,000 cells/well, and different concentrations of the PROTAC compounds 1-55 provided in the examples of the present disclosure and a positive control sample ARV-471 (source: Innochem) were prepared to treat cells, and the cells were treated at 37°C in a cell culture incubator with 5% CO2 for 6 days. Cell viability was detected using a CCK-8 kit (Beyotime, Product number: C0040) according to the manufacturer's instructions. […] Table 2 IC50 values for inhibition of the proliferation of T-47D cells by the PROTAC compounds provided by the present disclosure and the positive control sample

ERα [1] = target: T1, ERα (Homo sapiens, UniProt P03372); experiment: Degradation of ERα in T-47D cells (immunoblotting, 4 h); set-up: host or cells: T-47D
T1 sequence (P03372 1-595): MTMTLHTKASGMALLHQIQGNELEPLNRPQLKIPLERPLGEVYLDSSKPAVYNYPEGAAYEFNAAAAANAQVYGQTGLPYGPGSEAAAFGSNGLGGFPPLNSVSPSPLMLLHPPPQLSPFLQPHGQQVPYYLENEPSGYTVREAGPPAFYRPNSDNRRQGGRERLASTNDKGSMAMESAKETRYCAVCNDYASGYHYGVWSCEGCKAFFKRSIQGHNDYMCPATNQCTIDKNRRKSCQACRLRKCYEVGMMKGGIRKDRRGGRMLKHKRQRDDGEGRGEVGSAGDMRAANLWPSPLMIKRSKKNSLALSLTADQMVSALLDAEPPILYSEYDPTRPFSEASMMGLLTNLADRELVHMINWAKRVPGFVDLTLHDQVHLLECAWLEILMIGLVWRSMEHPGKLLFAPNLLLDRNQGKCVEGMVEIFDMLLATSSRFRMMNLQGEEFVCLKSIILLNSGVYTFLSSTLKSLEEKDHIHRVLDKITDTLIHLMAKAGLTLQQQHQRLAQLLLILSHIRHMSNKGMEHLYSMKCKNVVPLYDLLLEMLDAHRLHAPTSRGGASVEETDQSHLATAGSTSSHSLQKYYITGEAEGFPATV
Method in brief: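 T-47D cells were treated with compound (final 0.15-1000 nM, DMSO) for 4 h at 37°C, 5% CO2. Cells were lysed in RIPA buffer with protease inhibitor, and ERα protein in the cleared lysate was measured by immunoblotting.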

MCF-7 cells = experiment: Inhibition of cell proliferation of MCF-7 cells (CCK-8, 9 days); details: treated for 9 days, CCK-8 kit (Table 6)
Method in brief: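 MCF-7 cells seeded at 800 cells/well in DMEM with 10% FBS, exposed to a range of compound concentrations for 9 days at 37°C, 5% CO2. Viability read by CCK-8; IC50 derived for proliferation inhibition.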

ERα [2] = target: T1, ERα; experiment: Degradation of ERα in MCF-7 cells (immunoblotting, 4 h)
Method in brief: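 MCF-7 cells treated 4 h at 37°C with compounds at 0.15-1000nM final. ERα in lysates measured by immunoblot, with band grayscale normalized to an internal reference protein. Degradation rate calculated against DMSO-treated control.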

| Compound | IC50 (T-47D cells) [nM] | Degradation rate (%) of ERα in T-47D cells (ERα [1]; 1nM compound) [%] | Degradation rate (%) of ERα in T-47D cells (ERα [1]; 10nM compound) [%] | IC50 (MCF-7 cells) [nM] | Degradation rate (%) of ERα in MCF-7 cells (ERα [2]; 1nM compound) [%] | Degradation rate (%) of ERα in MCF-7 cells (ERα [2]; 10nM compound) [%] |
| --- | --- | --- | --- | --- | --- | --- |
| O=C1CCC(N2Cc3cc4c(cc3C2=O)OC2(CC4)CCN(CC3CCC4(CC3)CCN(c3ccc([C@@H]5c6ccc(O)cc6CC[C@@H]5c5ccccc5)cc3)CC4)CC2)C(=O)N1 (some centres unmarked) [A40] | 13 | 6 | 25 | 76 | 15 | 35 |
| C[C@@H]1Cc2c(ccc3[nH]ncc23)[C@@H](c2ccc(N3CCN(C[C@H]4CC[C@H](C(=O)N5CCC6(CC5)COc5c6ccc6c5CN(C5CCC(=O)NC5=O)C6=O)CC4)CC3)cn2)N1CC(F)(F)F (some centres unmarked) [A117] | 10.1 | 66 | 77 | 63.3 | 48 | 47 |
| CCN(C1CCN(c2ccc([C@@H]3c4ccc(O)cc4CC[C@@H]3c3ccccc3)cc2)CC1)[C@H]1CC[C@@H](C(=O)N2CCC3(CC2)COc2c3ccc3c2CN(C2CCC(=O)NC2=O)C3=O)CC1 (some centres unmarked) [B43] | 4.04 | 57 | 80 | 232 | 54 | 62 |
| O=C1CCC(N2Cc3c(ccc4c3OCC43CCN(C4CCN(C(=O)C5(F)CCN(c6ccc([C@@H]7c8ccc(O)cc8CC[C@@H]7c7ccccc7)cc6)CC5)CC4)CC3)C2=O)C(=O)N1 (some centres unmarked) [A89] | 2.16 | 40 | 70 | 110 | 48 | 72 |
| O=C1CCC(N2Cc3c(ccc4c3OCC43CCN(C4CCN(C(=O)C5CCN(c6ccc([C@@H]7c8ccc(O)cc8CC[C@@H]7c7ccccc7)cc6)CC5)[C@@H](C(=O)N5CCC(F)(F)C5)C4)CC3)C2=O)C(=O)N1 (some centres unmarked) [C2] | 1.68 | 49 | 81 | 31.1 | 42 | 63 |
| C[C@@H]1Cc2c(ccc3[nH]ncc23)C(c2c(F)cc(N3CC4(CCC(N5CCC6(CC5)COc5c6ccc6c5CN(C5CCC(=O)NC5=O)C6=O)CC4)C3)cc2F)N1CC(F)F (some centres unmarked) [G21] | 25.1 | 34 | 63 | 8.6 | 45 | 57 |
| O=C1CCC(N2C(=O)c3ccc4c(c3C2=O)OCC42CCN(C(=O)CN3CCC4(CCN(c5ccc([C@@H]6c7ccc(O)cc7CC[C@@H]6c6ccccc6)cc5)CC4)C3)CC2)C(=O)N1 (some centres unmarked) [K24] | 1.44 | 48 | 72 | 32.5 | 31 | 46 |
| C[C@@H]1Cc2c(ccc3[nH]ncc23)[C@@H](c2c(F)cc(N3CCC4(CCN(C(=O)CN5CCC6(CC5)COc5c6ccc6c5CN(C5CCC(=O)NC5=O)C6=O)CC4)CC3)cc2F)N1CC(F)F (some centres unmarked) [C13] | 0.61 | 46 | 70 | 3.24 | 41 | 62 |
| O=C1CCC(N2Cc3cc4c(cc3C2=O)CCC2(CN(C(=O)CN3CCC5(CC3)CCN(c3ccc([C@@H]6c7ccc(O)cc7CC[C@@H]6c6ccccc6)cc3)CC5)C2)O4)C(=O)N1 (some centres unmarked) [A69] | 3.53 | 19 | 67 | 90.8 | 21 | 35 |
| CC1(CN2CCC3(CC2)COc2c3ccc3c2CN(C2CCC(=O)NC2=O)C3=O)CCN(C(=O)C2CCN(c3ccc([C@@H]4c5ccc(O)cc5CC[C@@H]4c4ccccc4)cc3)CC2)CC1 (some centres unmarked) [A109] | 2.93 | 31 | 75 | 42.8 | 10 | 54 |
| C[C@@H]1Cc2c(ccc3[nH]ncc23)C(c2ccc(N3CCC(N4CC[C@@H](N5CCC6(CC5)COc5c6ccc6c5CN(C5CCC(=O)NC5=O)C6=O)[C@@H](F)C4)CC3)cn2)N1CC(F)(F)F (some centres unmarked) [H57] | 26.9 | 38 | 71 | 7370 | 38 | 60 |
| C[C@@H]1Cc2c(ccc3[nH]ncc23)[C@@H](c2c(F)cc(N3CCC4(CCN(C(=O)CN5CCC6(CC5)COc5c6ccc6c5CN(C5CCC(=O)NC5=O)C6=O)C4)CC3)cc2F)N1CC(F)F (some centres unmarked) [C14] | 0.96 | 50 | 66 | 15 | 41 | 55 |
| O=C1CCC(N2Cc3cc4c(cc3C2=O)OC2(CC4)CCN(C3CC4(CCN(c5ccc([C@@H]6c7ccc(O)cc7CC[C@@H]6c6ccccc6)cc5)CC4)C3)CC2)C(=O)N1 (some centres unmarked) [M17] | 8 | 10 | 20 | 30 | -9 | 0 |
| COC(=O)[C@@H]1C[C@H](N2CCC3(CC2)COc2c3ccc3c2CN(C2CCC(=O)NC2=O)C3=O)CCN1C1CCN(c2ccc([C@@H]3c4ccc(O)cc4CC[C@@H]3c3ccccc3)cc2)CC1 (some centres unmarked) [H32] | 1.44 | 52 | 77 | 4020 | 35 | 58 |
| O=C1CCC(N2Cc3c(ccc4c3OCC43CCN(C4CC5(CCC6(CCN(c7ccc([C@@H]8c9ccc(O)cc9CC[C@@H]8c8ccccc8)cc7)CC6)CC5)C4)CC3)C2=O)C(=O)N1 (some centres unmarked) [B23] | 10.2 | – | – | 417 | 17 | 40 |
| O=C1CCC(N2C(=O)c3cc4c(cc3C2=O)OC2(CC4)CN(CC3CCC4(CC3)CN(c3ccc([C@@H]5c6ccc(O)cc6CC[C@@H]5c5ccccc5)cc3)C4)C2)C(=O)N1 (some centres unmarked) [M14] | 30 | -29 | -17 | 23 | – | – |
